{"source": "patent US20210386829A1", "about": "“COMPOSITIONS AND METHODS FOR MODULATING CGRP SIGNALING TO REGULATE INNATE LYMPHOID CELL INFLAMMATORY RESPONSES” (The Broad Institute, Inc., priority 2018, published 2021)", "test_system": "lung ILCs", "experiment": "culture of sort-purified lung ILCs with IL-7, IL-33 or IL-25+NMU with or without CGRP (qPCR, LegendPlex, intracellular cytokine staining)", "assay_type": "cell-based, mouse", "protocol": "ILC in vitro culture. For in vitro experiments 5,000 ILCs/well were cultured in a 96 well round bottom plate with 20 ng/ml IL-7 (R&D Systems), 200 ng/ml IL-25 (R&D Systems) or 20 ng/ml, 2 ng/ml or 0.2 ng/ml IL-33 (BioLegend) with or without 1 μg/ml Neuromedin U (US Biological). In some cases purified CD90.2^+ lung cells were first labeled with CellTrace Violet (Thermo Fisher Scientific), then sorted as described above, and cultured for 3 days under the indicated conditions.\nQuantitative real-time PCR. RNA was isolated using RNeasy Plus Mini Kit (Qiagen) and reverse transcribed to cDNA with iScript cDNA Synthesis Kit (Bio-Rad). Gene expression was analyzed by quantitative real-time PCR on a ViiA7 System (Thermo Fisher Scientific) using TaqMan Fast Advanced Master Mix (Thermo Fisher Scientific) with the following primer/probe sets: Il5 (Mm00439646_m1), Il13 (Mm00434204_m1), Il17rb (Mm00444709_m1), Nmur1 (Mm04207994_m1), Nmur2 (Mm00600704_m1), Nmu (Mm00479868_m1) and Actb (Applied Biosystems). Expression values were calculated relative to Actb detected in the same sample by duplex qPCR.\nCytokine quantification. Cytokine concentrations in BAL fluid, lung and supernatant of in vitro ILC cultures were analyzed by the LegendPlex Mouse Th Cytokine Panel (13-plex) (BioLegend) according to the manufacturer's instructions and analyzed on a FACS Calibur (BD Biosciences).\nCulture of innate lymphoid cells. Sort-purified innate lymphoid cells (ILCs) were cultured under sterile conditions in complete medium in a humidified incubator at 37° C. and 10% CO2. ILCs were plated at a density of 3,000-5,000 ILCs per well in a 96 well round-bottom plate in cell culture medium with 20 ng/ml IL-7. Depending on the experiment, different combinations of 200 ng/ml IL-25, 200 ng/ml IL-33, 1 ug/ml NMU and 100 nM CGRP were added either at start or after overnight culture with 20 ng/ml IL-7. […]\nFor flow cytometric analysis, lung cells were transferred into a 96 well V-bottom plate and stained with surface antibodies for 20 min at 4° C. in the dark. Cells were washed twice with DPBS containing 2% fetal bovine serum and transferred into 1.2 ml tubes for analysis by flow cytometry. For intracellular cytokine staining, cells were incubated in complete cell culture medium with 50 ng/ml phorbol 12-myristate 13-acetate (Sigma-Aldrich), 1 uM ionomycin (Sigma-Aldrich) and GolgiStop (Cat #554724; BD Biosciences) in a humidified incubator at 37° C. and 10% CO2. After 5 hours, cells were transferred into 96 well V-bottom plate, stained with Fixable Viability Dye eFluor 506 (Cat #65-0866-14; Thermo Fisher) and surface antibodies for 20 min at 4° C. in the dark and washed twice with DPBS containing 2% fetal bovine serum. Then, cells were incubated with BD Cytofix/Cytoperm Buffer (Cat #51-2090KZ; BD Biosciences) for 20 min, followed by a wash with BD Perm/Wash Buffer (Cat #51-2091KZ; BD Biosciences). Subsequently, cells were incubated with antibodies targeting intracellular proteins diluted in BD Perm/Wash Buffer for 20 min and after two wash steps, transferred into 1.2 ml tubes for analysis by flow cytometry. For ki67 staining, cells were stained for surface antibodies as described above, fixed with a solution of Fixation/Permeabilization Concentrate (Cat #00-5123-43; Invitrogen) and Fixation/Perm Diluent (Cat #00-5223-56; Invitrogen) for 20 min, washed with Permeabilization Buffer (Cat #00-8333-56; Invitrogen). Then, cells were incubated with ki67 antibody diluted in Permeabilization Buffer for 20 min, washed and transferred into FACS tubes. Cells were analyzed on a BD LSRFortessa (BD Biosciences) flow cytometer with 5 lasers (355 nm, 405 nm, 488 nm, 561 nm and 640 nm). Data was analyzed using FlowJo v10.5.0 software and cell populations were gated as described previously (Wallrapp 2017).\nRNA isolation and cDNA synthesis. […]", "key": {"[1]": {"details": "IL-7+CGRP vs IL-7 alone, 6 hours"}, "[2]": {"details": "IL-33+CGRP vs IL-33 alone, 6 hours"}, "[3]": {"details": "IL-33+CGRP vs IL-33 alone, 3 days"}, "[4]": {"details": "IL-33+CGRP vs IL-33 alone, 3 days culture"}}, "note": "Entries after “also recorded” stand apart in the source; their conditions may differ."}
{"substance": "CGRP: neuropeptide calcitonin gene-related peptide (encoded by Calca), ligand of the Ramp1/Calcrl receptor; given at 100 nM in vitro, 6.65 ug nasally", "values": [{"measurement": "Il5 expression in ILC2s (qPCR)", "setting": "[1]", "result": "upregulated"}, {"measurement": "Il13 expression in ILC2s (qPCR)", "setting": "[1]", "result": "downregulated"}, {"measurement": "amphiregulin (Areg) expression in ILC2s (qPCR)", "setting": "[1]", "result": "trend of increased expression"}, {"measurement": "type 2 cytokine (IL-5, IL-13) production at mRNA and protein level in ILCs", "setting": "IL-25+NMU+CGRP vs IL-25+NMU, 3 days", "result": "significantly reduced"}, {"measurement": "Areg expression in ILC2s (qPCR)", "setting": "[2]", "result": "significantly increased"}, {"measurement": "Il5 expression in ILC2s (qPCR)", "setting": "[2]", "result": "significantly increased"}, {"measurement": "Il13 expression in ILC2s (qPCR)", "setting": "[2]", "result": "significantly decreased"}, {"measurement": "IL-13 produced per cell (MFI)", "setting": "[3]", "result": "less"}, {"measurement": "amount of IL-5 expressed per cell (MFI)", "setting": "[3]", "result": "significant decreases"}, {"measurement": "frequency of IL-5-producing ILCs (flow cytometry)", "setting": "[3]", "result": "significant decreases"}, {"measurement": "frequency of IL-13+ ILCs (flow cytometry)", "setting": "[3]", "result": "lower"}, {"measurement": "Areg expression in ILCs (qPCR)", "setting": "[4]", "result": "increased"}, {"measurement": "IL-5 production at RNA and protein level in ILCs", "setting": "[4]", "result": "reduces; also recorded: significantly reduced"}, {"measurement": "IL-13 production at RNA and protein level in ILCs", "setting": "[4]", "result": "reduces; also recorded: significantly reduced; also recorded: remains repressed"}, {"measurement": "IL-5 protein production (intracellular cytokine staining)", "setting": "short-term (8 hours) CGRP+IL33 vs IL-33 alone", "result": "induced"}, {"measurement": "frequency of IL-13-positive ILC2s (intracellular cytokine staining)", "setting": "short-term (8 hours) treatment with CGRP+IL33", "result": 2, "unit": "%"}]}
